Source: patent US5932410A, “Assay for the detection of proteases” (Commonwealth Scientific and Industrial Research …, priority 1994, dated 1999)
Where a SMILES comes first, the peptide text is derived from it. The star is where a group is joined. Cbz = O=C(OCc1ccccc1)*

Tests used:
[1] = biological target: prostate specific antigen (PSA) (Homo sapiens, UniProt P07288); experiment: Esterase assay, PSA on peptide ester substrates; type: biochemical; conditions: for Rate relative to Ac-AlaValTyr-OMe (218): rate of hydrolysis; for Substrate preference of PSA: within the substrate series tested
Sequence of prostate specific antigen (PSA) (P07288 25-261): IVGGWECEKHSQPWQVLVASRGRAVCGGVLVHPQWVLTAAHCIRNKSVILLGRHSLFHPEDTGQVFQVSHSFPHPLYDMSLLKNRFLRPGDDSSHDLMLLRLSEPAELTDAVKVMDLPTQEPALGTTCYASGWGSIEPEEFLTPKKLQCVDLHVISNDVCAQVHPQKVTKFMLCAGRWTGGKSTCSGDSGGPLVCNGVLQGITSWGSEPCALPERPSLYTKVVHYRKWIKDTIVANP
Text: (§1) Advantage was taken of this activity to develop an "esterase" assay which uses a pH indicator to visualise the hydrogen ion release caused by the action of proteases on peptide-ester substrates. A series of twenty compounds of the form, carbobenzoxy alanyl-X-methyl ester (Z-AX-OMe) were synthesised where "X" is one of the naturally occurring amino acids. These substrates were used in a 96 well microtitre plate assay to screen each mutant enzyme for activity and specificity. The reactions were followed visually or quantified using a standard ELISA plate reader.
In all eleven compounds were synthesised and purified and tested where X was the residue listed below.

Chymotrypsin = Chymotrypsin (Bos taurus, UniProt P00766); experiment: Esterase assay, chymotrypsin; type: biochemical; conditions: Z-AX-OMe substrate; for Esterase rate, Chymotrypsin: X = P1 residue, rates approximately ± 10%; for % of maximum activity, Chymotrypsin: percentage of the maximum activity
Text: as §1, with “reader. The esterase assay, using trypsin as a test enzyme and Z-Ala-Arg-OMe as substrate, was more sensitive as than traditional trypsin substrates (three times the rate obtained with benzoyl arginine ethyl aster and twenty times the rate of benzoyl arginine p-nitroanilide) (Whittaker et al., Analytical Biochemistry, 220, 238-243, 1994).” for “reader.”
(§2) The present inventors produced a panel of substrates carbobenzoxy alanyl-X-methyl eater (Z-AX-OMe) where X is one of the naturally occurring amino acids. The reactivity of these substrates with a number of serine proteases is set out in Table 1 and FIG. 1.
(§3) Rates are A580 change/min./mg protease. Rates are also shown as a […]

Trypsin [2] = experiment: Esterase assay, trypsin; type: biochemical; conditions: Z-AX-OMe substrate; for Esterase rate, Trypsin: X = P1 residue, rates approximately ± 10%; for % of maximum activity, Trypsin: percentage of the maximum activity
Text: as §1, with “reader. The esterase assay, using trypsin as a test enzyme and Z-Ala-Arg-OMe as substrate, was more sensitive as than traditional trypsin substrates (three times the rate obtained with benzoyl arginine ethyl aster and twenty times the rate of benzoyl arginine p-nitroanilide) (Whittaker et al., Analytical Biochemistry, 220, 238-243, 1994).” for “reader.”
as §2, §3

Thrombin = Thrombin (Homo sapiens, UniProt P00734); experiment: Esterase assay, thrombin; type: biochemical; conditions: Z-AX-OMe substrate; for Esterase rate, Thrombin: X = P1 residue, rates approximately ± 10%; for % of maximum activity, Thrombin: percentage of the maximum activity
Text: as §1, with “reader. The esterase assay, using trypsin as a test enzyme and Z-Ala-Arg-OMe as substrate, was more sensitive as than traditional trypsin substrates (three times the rate obtained with benzoyl arginine ethyl aster and twenty times the rate of benzoyl arginine p-nitroanilide) (Whittaker et al., Analytical Biochemistry, 220, 238-243, 1994).” for “reader.”
as §2, §3

Elastase = Elastase (Sus scrofa, UniProt P00772); experiment: Esterase assay, elastase; type: biochemical; conditions: Z-AX-OMe substrate; for Esterase rate, Elastase: X = P1 residue, rates approximately ± 10%; for % activity, Elastase: normalised to alanine
Sequence of Elastase (P00772 27-266): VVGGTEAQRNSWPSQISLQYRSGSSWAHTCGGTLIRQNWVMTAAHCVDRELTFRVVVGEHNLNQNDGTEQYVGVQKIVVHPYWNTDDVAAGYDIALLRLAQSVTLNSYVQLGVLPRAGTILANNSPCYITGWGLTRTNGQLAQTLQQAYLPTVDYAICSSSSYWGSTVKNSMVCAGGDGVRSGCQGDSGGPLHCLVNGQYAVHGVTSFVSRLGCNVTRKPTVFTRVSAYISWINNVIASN
Text: as §1, with “reader. The esterase assay, using trypsin as a test enzyme and Z-Ala-Arg-OMe as substrate, was more sensitive as than traditional trypsin substrates (three times the rate obtained with benzoyl arginine ethyl aster and twenty times the rate of benzoyl arginine p-nitroanilide) (Whittaker et al., Analytical Biochemistry, 220, 238-243, 1994).” for “reader.”
as §2, §3

α-Lytic protease = α-Lytic protease (Lysobacter enzymogenes, UniProt P00778); experiment: Esterase assay, α-lytic protease; type: biochemical; conditions: Z-AX-OMe substrate; for Esterase rate, α-Lytic protease: X = P1 residue, rates approximately ± 10%; for % activity, α-Lytic protease: normalised to alanine
Sequence of α-Lytic protease (P00778 25-397 limits assumed): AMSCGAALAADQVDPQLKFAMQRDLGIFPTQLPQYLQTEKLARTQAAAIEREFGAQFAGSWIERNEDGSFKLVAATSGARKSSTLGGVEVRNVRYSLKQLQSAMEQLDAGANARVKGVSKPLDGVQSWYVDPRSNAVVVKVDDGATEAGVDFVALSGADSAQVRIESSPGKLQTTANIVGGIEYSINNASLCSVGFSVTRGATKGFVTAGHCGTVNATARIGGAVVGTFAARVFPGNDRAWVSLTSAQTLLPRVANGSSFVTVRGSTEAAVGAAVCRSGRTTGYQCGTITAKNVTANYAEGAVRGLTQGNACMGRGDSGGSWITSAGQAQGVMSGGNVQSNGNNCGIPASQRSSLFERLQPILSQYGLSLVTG
Text: as §1, with “reader. The esterase assay, using trypsin as a test enzyme and Z-Ala-Arg-OMe as substrate, was more sensitive as than traditional trypsin substrates (three times the rate obtained with benzoyl arginine ethyl aster and twenty times the rate of benzoyl arginine p-nitroanilide) (Whittaker et al., Analytical Biochemistry, 220, 238-243, 1994).” for “reader.”
as §2, §3

Subtilisin = experiment: Esterase assay, subtilisin; type: biochemical; conditions: Z-AX-OMe substrate; for Esterase rate, Subtilisin: X = P1 residue, rates approximately ± 10%; for % of maximum activity, Subtilisin: percentage of the maximum activity
Text: as §1, with “reader. The esterase assay, using trypsin as a test enzyme and Z-Ala-Arg-OMe as substrate, was more sensitive as than traditional trypsin substrates (three times the rate obtained with benzoyl arginine ethyl aster and twenty times the rate of benzoyl arginine p-nitroanilide) (Whittaker et al., Analytical Biochemistry, 220, 238-243, 1994).” for “reader.”
as §2, §3

Proteinase K = Proteinase K (Parengyodontium album, UniProt P06873); experiment: Esterase assay, proteinase K; type: biochemical; conditions: Z-AX-OMe substrate; for Esterase rate, Proteinase K: X = P1 residue, rates approximately ± 10%; for % of maximum activity, Proteinase K: percentage of the maximum activity
Sequence of Proteinase K (P06873 106-384): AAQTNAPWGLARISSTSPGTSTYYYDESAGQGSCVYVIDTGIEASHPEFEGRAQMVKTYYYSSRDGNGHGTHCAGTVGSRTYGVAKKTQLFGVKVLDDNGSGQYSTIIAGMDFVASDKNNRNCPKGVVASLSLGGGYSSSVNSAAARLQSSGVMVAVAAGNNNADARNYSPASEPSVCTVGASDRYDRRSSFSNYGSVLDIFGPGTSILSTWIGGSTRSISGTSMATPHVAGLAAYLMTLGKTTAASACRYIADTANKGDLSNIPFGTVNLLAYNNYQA
Text: as §1, with “reader. The esterase assay, using trypsin as a test enzyme and Z-Ala-Arg-OMe as substrate, was more sensitive as than traditional trypsin substrates (three times the rate obtained with benzoyl arginine ethyl aster and twenty times the rate of benzoyl arginine p-nitroanilide) (Whittaker et al., Analytical Biochemistry, 220, 238-243, 1994).” for “reader.”
as §2, §3

Trypsin [3] = conditions: trypsin as test enzyme; cited from earlier work
[4] = substrates of the form Ac-Ala-x-TyrOMe, FIG. 2

Compound | Esterase rate, Chymotrypsin (Chymotrypsin) | % of maximum activity, Chymotrypsin (Chymotrypsin) [%] | Esterase rate, Trypsin (Trypsin [2]) | % of maximum activity, Trypsin (Trypsin [2]) [%] | Esterase rate, Thrombin (Thrombin) | % of maximum activity, Thrombin (Thrombin) [%] | Esterase rate, Elastase (Elastase) | % activity, Elastase (Elastase) [%] | Esterase rate, α-Lytic protease (α-Lytic protease) | % activity, α-Lytic protease (α-Lytic protease) [%] | Esterase rate, Subtilisin (Subtilisin) | % of maximum activity, Subtilisin (Subtilisin) [%] | Esterase rate, Proteinase K (Proteinase K) | % of maximum activity, Proteinase K (Proteinase K) [%] | further results
COC(=O)[C@H](Cc1ccc(O)cc1)NC(=O)[C@H](CC(C)C)NC(=O)[C@H](C)NC(C)=O [Ac-AlaLeuTyr-OMe] (Ac-Ala-Leu-Tyr-OMe) | – | – | – | – | – | – | – | – | – | – | – | – | – | – | Rate relative to Ac-AlaValTyr-OMe (218) ([1]; PSA): 70%
COC(=O)[C@H](Cc1ccc(O)cc1)NC(=O)[C@@H](NC(=O)[C@H](C)NC(=O)[C@@H](NC(C)=O)C(C)C)C(C)C [Ac-Val AlaValTyr-OMe] (Ac-VAVY-OMe) | – | – | – | – | – | – | – | – | – | – | – | – | – | – | Rate relative to Ac-AlaValTyr-OMe (218) ([1]; PSA): 64.6%
COC(=O)[C@H](CCCNC(=N)N)NC(=O)[C@H](C)NC(=O)OCc1ccccc1 [Arg, Z-Ala-Arg-OMe] (Cbz-Ala-Arg-OMe) | 1.1 A580 change/min./mg protease | 2.0 | 355.4 A580 change/min./mg protease | 100 | 8.7 A580 change/min./mg protease | 100 | 0 A580 change/min./mg protease | 0 | 0 A580 change/min./mg protease | 0 | 97 A580 change/min./mg protease | 4.5 | 24 A580 change/min./mg protease | 3.1 | Rate relative to benzoyl arginine ethyl ester (Trypsin [3]): three times; Rate relative to benzoyl arginine p-nitroanilide (Trypsin [3]): twenty times
COC(=O)[C@H](CCSC)NC(=O)[C@H](C)NC(=O)OCc1ccccc1 [Met] (Cbz-Ala-Met-OMe) | 6.6 A580 change/min./mg protease | 12.0 | 0 A580 change/min./mg protease | 0 | 0 A580 change/min./mg protease | 0 | trace | – | 2.0 A580 change/min./mg protease | 32.3 | 2149 A580 change/min./mg protease | 100 | 525 A580 change/min./mg protease | 67.7 | –
COC(=O)[C@H](Cc1ccccc1)NC(=O)[C@H](C)NC(=O)OCc1ccccc1 [Phe] | 37.8 A580 change/min./mg protease | 68.5 | 2.9 A580 change/min./mg protease | 0.8 | 0 A580 change/min./mg protease | 0 | 0 A580 change/min./mg protease | 0 | 0 A580 change/min./mg protease | 0 | 998 A580 change/min./mg protease | 46.0 | 342 A580 change/min./mg protease | 44.1 | –
COC(=O)[C@@H]1CCCN1C(=O)[C@H](C)NC(=O)OCc1ccccc1 [Pro] (Cbz-Ala-Pro-OMe) | 0 A580 change/min./mg protease | 0 | 0 A580 change/min./mg protease | 0 | 0 A580 change/min./mg protease | 0 | 0 A580 change/min./mg protease | 0 | 0 A580 change/min./mg protease | 0 | trace | – | trace | – | –
COC(=O)[C@H](CO)NC(=O)[C@H](C)NC(=O)OCc1ccccc1 [Ser] (Cbz-Ala-Ser-OMe) | trace | – | 0 A580 change/min./mg protease | 0 | 0 A580 change/min./mg protease | 0 | 0.4 A580 change/min./mg protease | 3.6 | 0.7 A580 change/min./mg protease | 11.3 | 366 A580 change/min./mg protease | 17.0 | 348 A580 change/min./mg protease | 44.9 | –
COC(=O)[C@H](Cc1ccc(O)cc1)NC(=O)[C@@H](NC(=O)[C@H](C)NC(C)=O)C(C)C [Substrate 218, Ac-AlaValTyr-OMe] (Ac-Ala-Val-Tyr-OMe) | – | – | – | – | – | – | – | – | – | – | – | – | – | – | Rate relative to Z-AlaTyr OMe (the screening substrate) ([1]; PSA, from the graph (FIG. 2)): 15.5; Substrate preference of PSA [1]: best
COC(=O)[C@@H](NC(=O)[C@H](C)NC(=O)OCc1ccccc1)[C@@H](C)O [Thr] (Cbz-Ala-Thr-OMe) | trace | – | 0 A580 change/min./mg protease | 0 | 0 A580 change/min./mg protease | 0 | 3.1 A580 change/min./mg protease | 19.7 | 4.2 A580 change/min./mg protease | 67.7 | 123 A580 change/min./mg protease | 5.7 | 90 A580 change/min./mg protease | 11.6 | –
COC(=O)[C@H](Cc1c[nH]c2ccccc12)NC(=O)[C@H](C)NC(=O)OCc1ccccc1 [Trp] (Cbz-Ala-Trp-OMe) | 27.2 A580 change/min./mg protease | 49.3 | trace | – | 0 A580 change/min./mg protease | 0 | 0 A580 change/min./mg protease | 0 | 0 A580 change/min./mg protease | 0 | 216 A580 change/min./mg protease | 10.1 | 353 A580 change/min./mg protease | 45.5 | –
COC(=O)[C@H](Cc1ccc(O)cc1)NC(=O)[C@H](C)NC(=O)OCc1ccccc1 [Tyr, Z-Ala-Tyr-OMe] (Cbz-Ala-Tyr-OMe) | 55.2 A580 change/min./mg protease | 100 | 10.8 A580 change/min./mg protease | 3.0 | 0 A580 change/min./mg protease | 0 | 0 A580 change/min./mg protease | 0 | 0 A580 change/min./mg protease | 0 | 345 A580 change/min./mg protease | 16.1 | 80 A580 change/min./mg protease | 10.3 | Substrate preference of PSA [1]: preferred substrate
COC(=O)[C@@H](NC(=O)[C@H](C)NC(=O)OCc1ccccc1)C(C)C [Val] (Cbz-Ala-Val-OMe) | 0 A580 change/min./mg protease | 0 | 0 A580 change/min./mg protease | 0 | 0 A580 change/min./mg protease | 0 | 2.1 A580 change/min./mg protease | 13.4 | 1.3 A580 change/min./mg protease | 21.0 | 35 A580 change/min./mg protease | 1.6 | 97 A580 change/min./mg protease | 12.5 | –
PSA: prostate specific antigen, a protease; the enzyme tested on the substrates | – | – | – | – | – | – | – | – | – | – | – | – | – | – | Rate of PSA [1, 4]: 0.0263 OD580 change/min/μg; Rate of PSA, equivalent [1, 4]: 9.99 μmoles substrate/min/mg
